The results in this text go back to ChEMBL document CHEMBL1221220, “Transport and signaling via the amino acid binding site of the yeast Gap1 amino acid transceptor” (Nat Chem Biol, 2009).

Positions count from the first letter of the chain named. Active and inactive are the calls of the source. The rule behind the calls is not given here.

Experiment [1] concerns T1, General amino-acid permease GAP1 (Saccharomyces cerevisiae), P19145 [L387C].
T1 sequence (whole entry): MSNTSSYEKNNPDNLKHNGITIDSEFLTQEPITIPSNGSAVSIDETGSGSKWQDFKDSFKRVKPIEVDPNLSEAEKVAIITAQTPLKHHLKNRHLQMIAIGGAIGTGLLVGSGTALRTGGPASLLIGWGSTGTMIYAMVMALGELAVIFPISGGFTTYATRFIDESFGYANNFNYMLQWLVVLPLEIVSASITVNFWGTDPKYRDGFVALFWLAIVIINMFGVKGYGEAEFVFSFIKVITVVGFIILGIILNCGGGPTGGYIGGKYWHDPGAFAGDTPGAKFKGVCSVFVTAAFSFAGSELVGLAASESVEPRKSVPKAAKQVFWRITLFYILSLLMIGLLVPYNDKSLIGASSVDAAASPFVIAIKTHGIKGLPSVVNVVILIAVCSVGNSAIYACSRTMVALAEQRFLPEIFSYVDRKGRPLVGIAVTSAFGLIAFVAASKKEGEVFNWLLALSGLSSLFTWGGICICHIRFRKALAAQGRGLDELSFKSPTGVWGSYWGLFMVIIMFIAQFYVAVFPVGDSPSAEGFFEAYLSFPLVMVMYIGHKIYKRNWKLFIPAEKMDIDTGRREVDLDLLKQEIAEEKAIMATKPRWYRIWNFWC
As to the kind of experiment: Activation of yeast Gap1 L387C mutant-mediated amino acid uptake at 10 mM.

Experiment [2] deals with General amino-acid permease GAP1 (Saccharomyces cerevisiae), P19145 [S392C]. As to the kind of experiment: Inhibition of yeast Gap1 S392C mutant-mediated amino acid uptake at 10 mM.
Chain of General amino-acid permease GAP1 (Saccharomyces cerevisiae), P19145 [S392C] (P19145 whole entry S392C): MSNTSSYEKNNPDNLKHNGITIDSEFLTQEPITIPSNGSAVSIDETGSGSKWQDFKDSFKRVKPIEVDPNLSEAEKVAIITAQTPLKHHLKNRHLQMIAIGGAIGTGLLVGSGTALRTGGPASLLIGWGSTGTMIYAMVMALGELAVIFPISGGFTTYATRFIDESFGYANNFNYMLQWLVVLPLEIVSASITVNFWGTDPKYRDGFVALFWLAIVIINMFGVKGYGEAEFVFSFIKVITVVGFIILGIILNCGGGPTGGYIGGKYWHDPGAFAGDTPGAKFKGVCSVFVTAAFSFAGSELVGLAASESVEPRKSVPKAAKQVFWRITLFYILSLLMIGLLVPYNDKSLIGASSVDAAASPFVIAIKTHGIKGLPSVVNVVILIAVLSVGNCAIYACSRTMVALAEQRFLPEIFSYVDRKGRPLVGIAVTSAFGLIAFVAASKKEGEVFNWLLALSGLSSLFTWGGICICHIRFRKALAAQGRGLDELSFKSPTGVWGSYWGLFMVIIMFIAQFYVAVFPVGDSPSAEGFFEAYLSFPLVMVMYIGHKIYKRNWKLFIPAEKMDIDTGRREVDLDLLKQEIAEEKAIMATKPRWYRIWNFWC
The test system of experiment [3] is General amino-acid permease GAP1 (Saccharomyces cerevisiae), P19145 [V402C]. As to the kind of experiment: Inhibition of yeast Gap1 V402C mutant-mediated amino acid uptake at 10 mM.
Chain of General amino-acid permease GAP1 (Saccharomyces cerevisiae), P19145 [V402C] (P19145 whole entry V402C): as the sequence (P19145 whole entry S392C) above, with C392S, V402C counted along it
Experiment [4] concerns T2, General amino-acid permease GAP1 (Saccharomyces cerevisiae), P19145 [N391C].
T2 sequence (whole entry): T1 sequence (whole entry) with C387L, N391C
As to the kind of experiment: Induction of yeast Gap1 N391C mutant-mediated trehalose activation at 2 mM in presence of 10 mM MTSEA treated before compound addition.

Experiment [5] relates to T3, General amino-acid permease GAP1 (Saccharomyces cerevisiae), P19145 [C397C].
T3 sequence (whole entry): T1 sequence (whole entry) with C387L
As to the kind of experiment: Induction of yeast Gap1 C397C mutant-mediated […] activation at 2 mM in presence of 10 mM MTSEA treated before compound addition.

In experiment [6] the test system is T4, General amino-acid permease GAP1 (Saccharomyces cerevisiae), P19145 [S398C].
T4 sequence (whole entry): T1 sequence (whole entry) with C387L, S398C
As to the kind of experiment: Induction of yeast Gap1 S398C mutant-mediated trehalose activation at 2 mM in presence of 10 mM MTSEA treated before compound addition.

For `NC(=O)NCCC[C@H](N)C(=O)O`, in experiment [1], the outcome was inactive. The inhibition result in experiment [2], in experiment [3], in experiment [4], in experiment [5] and in experiment [6] was “Active” throughout.
